How the values were obtained:
Format in all cases: cell-based
KCNQ2 mutant Y118S = molecular target: T1, KCNQ2 mutant Y118S (Homo sapiens, UniProt O43526, Y118S); test: KCNQ2 mutant Y118S; conditions: 25 μM NH29
T1 construct: expressed in transfected cells
Protocol: FIG. 8 presents a bar-graph comparing the potentiating effect of 25 μM of Compound NH29 on various KCNQ subunits and mutants, wherein the opener effect is expressed as percent of the control current in the absence of the opener;

Kv 4.3 = molecular target: T2, Kv 4.3 (Homo sapiens, UniProt Q9UK17); test: Kv channel selectivity, Xenopus oocytes: Kv4.3; conditions: 25 μM, +30 mV
T2 construct: expressed in transfected cells; host or cells: Xenopus oocytes
T2 sequence (Q9UK17 whole entry): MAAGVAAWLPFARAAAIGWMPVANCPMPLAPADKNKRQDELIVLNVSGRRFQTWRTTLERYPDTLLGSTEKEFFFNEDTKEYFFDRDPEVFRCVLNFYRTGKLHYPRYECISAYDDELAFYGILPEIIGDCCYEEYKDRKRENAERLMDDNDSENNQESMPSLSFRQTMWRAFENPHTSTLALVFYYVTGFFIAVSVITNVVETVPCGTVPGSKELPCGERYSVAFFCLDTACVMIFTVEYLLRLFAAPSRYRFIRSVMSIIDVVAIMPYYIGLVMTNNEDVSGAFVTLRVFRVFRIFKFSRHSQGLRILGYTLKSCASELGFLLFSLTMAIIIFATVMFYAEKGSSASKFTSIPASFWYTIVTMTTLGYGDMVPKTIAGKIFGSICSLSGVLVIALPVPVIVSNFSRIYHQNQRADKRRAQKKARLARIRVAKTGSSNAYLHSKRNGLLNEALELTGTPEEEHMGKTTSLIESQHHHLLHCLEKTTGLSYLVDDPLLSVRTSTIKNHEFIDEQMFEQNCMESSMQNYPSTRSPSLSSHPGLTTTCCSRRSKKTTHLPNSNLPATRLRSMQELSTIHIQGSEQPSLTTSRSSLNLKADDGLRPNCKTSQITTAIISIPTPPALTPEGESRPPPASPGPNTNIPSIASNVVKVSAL
Protocol: (§1) Voltage-clamp measurements in Xenopus oocytes were performed as previously described.
(§2) The selectivity of NH29 on other relevant Kv channels expressed in Xenopus oocytes was also studied, and the results are summarized in Table 3 below. The specificity of NH29 at 25 μM and 50 μM towards various Kv channels was tested in Xenopus oocytes, except for Kv1.2 which was checked in transfected CHO cells. The current amplitude of the various Kv channels was tested at the indicated voltages and the effect of the drugs was expressed as fold of the control amplitude measured under the same conditions in the absence of the drug. The data in Table 3 are expressed as mean±SEM of 5-7 separate experiments.

KCNQ2 mutant R207W = molecular target: T3, KCNQ2 mutant R207W (Homo sapiens, UniProt O43526, R207W)
T3 construct: expressed in transfected cells; host or cells: CHO cells
T3 sequence (O43526 whole entry R207W): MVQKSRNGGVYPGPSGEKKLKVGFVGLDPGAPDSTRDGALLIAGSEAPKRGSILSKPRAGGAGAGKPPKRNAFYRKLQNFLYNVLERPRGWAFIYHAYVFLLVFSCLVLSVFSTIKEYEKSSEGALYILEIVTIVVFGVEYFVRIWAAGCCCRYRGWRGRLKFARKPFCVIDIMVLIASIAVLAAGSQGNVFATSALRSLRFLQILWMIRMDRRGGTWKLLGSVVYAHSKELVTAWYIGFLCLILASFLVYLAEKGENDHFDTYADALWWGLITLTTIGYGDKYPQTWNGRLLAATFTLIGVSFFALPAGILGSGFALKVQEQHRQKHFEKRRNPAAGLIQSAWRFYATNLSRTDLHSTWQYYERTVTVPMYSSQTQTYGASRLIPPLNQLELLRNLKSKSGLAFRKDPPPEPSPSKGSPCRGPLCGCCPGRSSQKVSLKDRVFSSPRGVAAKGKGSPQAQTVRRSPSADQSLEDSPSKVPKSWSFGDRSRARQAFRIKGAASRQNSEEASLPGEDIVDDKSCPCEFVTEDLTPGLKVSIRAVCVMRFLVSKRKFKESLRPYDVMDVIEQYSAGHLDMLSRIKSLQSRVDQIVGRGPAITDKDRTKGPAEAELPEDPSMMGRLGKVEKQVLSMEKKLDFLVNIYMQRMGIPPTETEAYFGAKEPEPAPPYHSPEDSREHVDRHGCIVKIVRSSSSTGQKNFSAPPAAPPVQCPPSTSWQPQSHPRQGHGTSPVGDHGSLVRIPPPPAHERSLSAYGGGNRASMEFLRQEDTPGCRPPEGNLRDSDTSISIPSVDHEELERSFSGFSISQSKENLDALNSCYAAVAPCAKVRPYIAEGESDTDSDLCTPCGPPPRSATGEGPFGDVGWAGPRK
From the text: FIGS. 10A-D present the potentiating effect of NH29, an exemplary channel opener compound according to embodiments of the present invention, on wild type KCNQ2 (FIGS. 10A and 10B) and R207W mutant (FIGS. 10C and 10D) channels, as expressed in activation curve measurements, showing that NH29 left-shifts the activation curve (ΔV50) by −15.5 mV and −5.5 mV in the case of the wild-type and the mutant, respectively, and showing that NH29 enhances the current of wild-type and the mutant by about 3.4-fold (at −40 mV) and 1.5-fold (at −20 mV), respectively.
FIGS. 11A-F present the potentiating effect of NH29, an exemplary channel opener compound according to embodiments of the present invention, and Retigabine, on KCNQ2 mutants R207W and W236L mutant. Shown are representative traces recorded from CHO cell transfected with the KCNQ2 mutant R207W 0, 1 and 4-4.5 minutes after external application of 25 μM of NH29 and wherein the membrane potential was stepped from −90 mV holding potential to −20 mV for 1.5 seconds pulse duration (FIG. 11A), or 0, 1 and 4 minutes after external application of 25 μM of Retigabine wherein the membrane potential was stepped from −90 mV holding potential to −40 mV for 1.5 seconds pulse duration (FIG. 11B). FIGS. 11C and 11D show representative traces recorded from CHO cells transfected with the KCNQ2 mutant W236L 0, 1 and 6 minutes after external application of 25 μM of NH29 (FIG. 11C) or 0 and 5 minutes after external application of 10 μM of Retigabine (FIG. 11D) and wherein the membrane potential was stepped from −90 mV holding potential to −40 mV for 1.5 seconds pulse duration. FIG. 11E presents superimposed traces, showing the effects of Retigabine (RTG) and NH29 on the channel activity of KCNQ2 mutant W236L as measured at −40 mV; and FIG. 11F presents a bar diagram comparing the potentiating effect of NH29 and Retigabine on native KCNQ2 and KCNQ2 mutants, wherein the opener effect is expressed as percent of the control current in the absence of the opener.
Voltage-clamp recordings in CHO cells were performed, using the whole-cell configuration of the patch-clamp technique. Signals were amplified using an Axopatch 200B patch-clamp amplifier (Molecular Devices, Sunnyvale, Calif.), sampled at 2 kHz and filtered at 800 Hz via a 4-pole Bessel low pass filter. Data were acquired using pClamp 9.2 software (Molecular Devices) and an IBM compatible Pentium IV computer in conjunction with a DigiData 1322A interface (Molecular Devices). The patch pipettes were pulled from borosilicate glass (Warner Instrument Corp, USA) with a resistance of 2-5 MΩ. For K^+ current recordings in CHO cells, the intracellular pipette solution contained (in mM): 130 KCl, 1 MgCl2, 5 K2ATP, 5 EGTA, 10 HEPES, adjusted with KOH to pH 7.4 (290 mOsm). The extracellular solution contained (in mM): 140 NaCl, 4 KCl, 1.8 CaCl2, 1.2 MgCl2, 11 glucose, 5.5 HEPES, adjusted with NaOH to pH 7.4 (310 mOsm). Series resistances (3-13 MΩ) were compensated (75-90%) and periodically monitored.

Kv 7.4 = molecular target: T4, Kv 7.4 (Homo sapiens, UniProt P56696); test: Kv channel selectivity, Xenopus oocytes: Kv7.4; conditions: −30 mV
T4 construct: expressed in transfected cells; host or cells: Xenopus oocytes
T4 sequence (P56696 whole entry): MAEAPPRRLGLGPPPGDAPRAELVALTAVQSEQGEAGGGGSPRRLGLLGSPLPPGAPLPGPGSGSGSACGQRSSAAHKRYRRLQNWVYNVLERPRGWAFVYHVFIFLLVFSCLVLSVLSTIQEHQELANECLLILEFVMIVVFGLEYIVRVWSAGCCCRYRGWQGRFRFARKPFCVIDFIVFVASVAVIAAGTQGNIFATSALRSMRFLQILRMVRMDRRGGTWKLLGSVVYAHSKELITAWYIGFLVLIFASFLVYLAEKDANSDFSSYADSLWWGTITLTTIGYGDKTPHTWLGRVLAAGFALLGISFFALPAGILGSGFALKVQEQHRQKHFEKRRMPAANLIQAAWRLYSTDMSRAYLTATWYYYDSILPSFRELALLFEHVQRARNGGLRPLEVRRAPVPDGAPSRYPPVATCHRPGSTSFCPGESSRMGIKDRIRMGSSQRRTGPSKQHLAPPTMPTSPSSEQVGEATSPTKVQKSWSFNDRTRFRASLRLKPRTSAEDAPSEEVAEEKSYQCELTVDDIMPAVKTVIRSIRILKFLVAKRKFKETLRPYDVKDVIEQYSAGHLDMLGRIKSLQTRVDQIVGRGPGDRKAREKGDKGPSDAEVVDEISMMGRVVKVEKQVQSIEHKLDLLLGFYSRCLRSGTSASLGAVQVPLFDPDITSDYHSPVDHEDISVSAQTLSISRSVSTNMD
Protocol: as §1, §2

Kv 7.1 = molecular target: T5, Kv 7.1 (Homo sapiens, UniProt P51787); test: Kv channel selectivity, Xenopus oocytes: Kv7.1; conditions: for Fold current amplitude: +30 mV, Xenopus oocytes
T5 construct: expressed in transfected cells; host or cells: Xenopus oocytes
T5 sequence (P51787 whole entry): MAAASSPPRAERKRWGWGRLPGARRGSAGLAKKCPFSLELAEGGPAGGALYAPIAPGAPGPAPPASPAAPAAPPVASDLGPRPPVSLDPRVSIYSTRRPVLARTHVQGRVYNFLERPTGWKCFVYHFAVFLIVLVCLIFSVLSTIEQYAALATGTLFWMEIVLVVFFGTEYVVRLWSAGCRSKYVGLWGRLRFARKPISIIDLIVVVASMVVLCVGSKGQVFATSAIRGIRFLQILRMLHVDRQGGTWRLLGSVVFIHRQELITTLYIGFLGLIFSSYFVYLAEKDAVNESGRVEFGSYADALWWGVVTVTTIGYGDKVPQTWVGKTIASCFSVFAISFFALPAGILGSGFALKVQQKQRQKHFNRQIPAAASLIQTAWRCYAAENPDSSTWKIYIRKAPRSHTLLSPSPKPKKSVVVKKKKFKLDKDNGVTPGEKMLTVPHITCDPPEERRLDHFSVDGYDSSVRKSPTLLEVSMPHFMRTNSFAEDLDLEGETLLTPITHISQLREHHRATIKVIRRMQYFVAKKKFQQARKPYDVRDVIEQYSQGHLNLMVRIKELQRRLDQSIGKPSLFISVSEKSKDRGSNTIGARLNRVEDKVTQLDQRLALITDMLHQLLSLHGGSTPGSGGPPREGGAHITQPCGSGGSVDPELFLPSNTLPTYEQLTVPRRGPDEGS
Protocol: as §1, §2

KCNQ2 mutant I209L = molecular target: T6, KCNQ2 mutant I209L (Homo sapiens, UniProt O43526, I209L); test: KCNQ2 S4 mutant I209L; conditions: NH29
T6 construct: expressed in transfected cells; host or cells: CHO cells
T6 sequence (O43526 whole entry I209L): as the sequence (O43526 whole entry R207W) above, with W207R, I209L counted along it
From the text: (§3) FIGS. 12A-F present the potentiating effect of NH29, an exemplary channel opener compound according to embodiments of the present invention, on selected KCNQ2 mutants. Shown are bar diagrams comparing the potentiating effect of NH29 on native KCNQ2 and KCNQ2 mutants, wherein the mutated amino acids are located at the S1-S2 helix region (FIG. 12A) or S4 helix region (FIG. 12D) and wherein the opener effect is expressed as percent of the control current in the absence of the opener. For comparison, marked as a green line, is the observed current increase of native KCNQ2 by NH29. FIGS. 12B 12C, 12E and 12F present representative traces recorded from CHO cell transfected with the KCNQ2 mutant S122A, S121A, L206C and R201A respectively, before and after external application of 25 μM of NH29 and wherein the membrane potential was stepped from −90 mV holding potential to −40 mV for 1.5 seconds pulse duration.
(§4) Voltage-clamp recordings in CHO cells were performed, using the whole-cell configuration of the patch-clamp technique. Signals were amplified using an Axopatch 200B patch-clamp amplifier (Molecular Devices, Sunnyvale, Calif.), sampled at 2 kHz and filtered at 800 Hz via a 4-pole Bessel low pass filter. […] Series resistances (3-13 MΩ) were compensated (75-90%) and periodically monitored.

KCNQ2 mutant R201A = molecular target: T7, KCNQ2 mutant R201A (Homo sapiens, UniProt O43526, R201A); test: KCNQ2 S4 mutant R201A in CHO cells; conditions: 25 μM NH29 (25 M [sic])
T7 construct: expressed in transfected cells; host or cells: CHO cells
T7 sequence (O43526 whole entry R201A): as the sequence (O43526 whole entry R207W) above, with R201A, W207R counted along it
From the text: as §3, §4

T1 sequence (O43526 whole entry Y118S): as the sequence (O43526 whole entry R207W) above, with Y118S, W207R counted along it

SMILES: O=C(Cc1cc([N+](=O)[O-])cc([N+](=O)[O-])c1Nc1c(Cl)cc([N+](=O)[O-])cc1Cl)NCCO [NH29]
- fold potentiation of current (KCNQ2 mutant Y118S): 2.1 fold
- Fold current amplitude (Kv 4.3): 1.1 ± 0.04 fold
- effect of point mutation R207W on the opener effect (KCNQ2 mutant R207W; 25 μM): completely abolished the opener effect
- fold enhancement of current (KCNQ2 mutant R207W; 25 μM NH29, at −20 mV): ~1.5 fold
- left-shift of the activation curve (ΔV50) (KCNQ2 mutant R207W; NH29): −5.5 mV
- Fold current amplitude (Kv 7.4; 25 μM): 1.0 ± 0.12 fold
- Fold current amplitude (Kv 7.4; 50 μM): 0.9 ± 0.04 fold
- Fold current amplitude (Kv 7.1; 25 μM): 0.93 ± 0.02 fold
- Fold current amplitude (Kv 7.1; 50 μM): 0.72 ± 0.02 fold
- inhibition at 50 µM (Kv 7.1; 50 μM, read-out: inhibition of Kv7.1 current): 23%
- sensitivity to the activating effect compared to wild-type Kv7.2 (KCNQ2 mutant I209L): significantly less sensitive
- fold enhancement of current (KCNQ2 mutant R201A): 1.2 fold

Source: patent US9403756B2, “N-phenyl anthranilic acid derivatives and uses thereof” (Ramot at Tel-Aviv University Ltd., priority 2007, dated 2016)
